Experimental data from BigSolDB 2.1.

CC(C)C(N)=O
solubility (mole fraction) (in 2-butanone, 273.15 K): 0.0397
solubility (mole fraction) (in 2-butanone, 279.15 K): 0.045
solubility (mole fraction) (in 2-butanone, 284.15 K): 0.0497
solubility (mole fraction) (in 2-butanone, 289.15 K): 0.0548
solubility (mole fraction) (in 2-butanone, 293.75 K): 0.0597
solubility (mole fraction) (in 2-butanone, 299.05 K): 0.0657
solubility (mole fraction) (in 2-butanone, 303.75 K): 0.0713
solubility (mole fraction) (in 2-butanone, 308.55 K): 0.0773
solubility (mole fraction) (in 2-butanone, 313.65 K): 0.0841
solubility (mole fraction) (in 2-butanone, 318.25 K): 0.0904
solubility (mole fraction) (in 2-butanone, 323.95 K): 0.0988
solubility (mole fraction) (in THF, 273.15 K): 0.0439
solubility (mole fraction) (in THF, 279.15 K): 0.0514
solubility (mole fraction) (in THF, 284.15 K): 0.0585
solubility (mole fraction) (in THF, 289.15 K): 0.0661
solubility (mole fraction) (in THF, 293.75 K): 0.0741
solubility (mole fraction) (in THF, 299.05 K): 0.0837
solubility (mole fraction) (in THF, 303.75 K): 0.093
solubility (mole fraction) (in THF, 308.55 K): 0.103
solubility (mole fraction) (in THF, 313.65 K): 0.115
solubility (mole fraction) (in THF, 318.25 K): 0.126
solubility (mole fraction) (in THF, 323.95 K): 0.141
solubility (mole fraction) (in acetone, 273.15 K): 0.00931
solubility (mole fraction) (in acetone, 279.15 K): 0.0135
solubility (mole fraction) (in acetone, 283.95 K): 0.018
solubility (mole fraction) (in acetone, 289.15 K): 0.0244
solubility (mole fraction) (in acetone, 293.85 K): 0.0317
solubility (mole fraction) (in acetone, 299.15 K): 0.0422
solubility (mole fraction) (in acetone, 303.45 K): 0.0528
solubility (mole fraction) (in acetone, 309.05 K): 0.0703
solubility (mole fraction) (in acetone, 313.25 K): 0.0857
solubility (mole fraction) (in acetone, 319.15 K): 0.114
solubility (mole fraction) (in acetone, 324.15 K): 0.143
solubility (mole fraction) (in acetonitrile, 273.15 K): 0.0122
solubility (mole fraction) (in acetonitrile, 279.15 K): 0.0166
solubility (mole fraction) (in acetonitrile, 283.95 K): 0.021
solubility (mole fraction) (in acetonitrile, 289.15 K): 0.0271
solubility (mole fraction) (in acetonitrile, 293.85 K): 0.0335
solubility (mole fraction) (in acetonitrile, 299.15 K): 0.0424
solubility (mole fraction) (in acetonitrile, 303.45 K): 0.051
solubility (mole fraction) (in acetonitrile, 309.05 K): 0.0645
solubility (mole fraction) (in acetonitrile, 313.25 K): 0.0766
solubility (mole fraction) (in acetonitrile, 319.15 K): 0.0961
solubility (mole fraction) (in acetonitrile, 324.15 K): 0.116
solubility (mole fraction) (in chloroform, 273.15 K): 0.013
solubility (mole fraction) (in chloroform, 279.15 K): 0.0176
solubility (mole fraction) (in chloroform, 284.15 K): 0.0222
solubility (mole fraction) (in chloroform, 289.15 K): 0.0282
solubility (mole fraction) (in chloroform, 294.15 K): 0.0352
solubility (mole fraction) (in chloroform, 299.15 K): 0.0436
solubility (mole fraction) (in chloroform, 303.75 K): 0.0529
solubility (mole fraction) (in chloroform, 309.15 K): 0.0656
solubility (mole fraction) (in chloroform, 313.15 K): 0.0769
solubility (mole fraction) (in chloroform, 319.15 K): 0.0968
solubility (mole fraction) (in chloroform, 324.75 K): 0.119
solubility (mole fraction) (in cyclohexanone, 273.15 K): 0.0267
solubility (mole fraction) (in cyclohexanone, 279.15 K): 0.0333
solubility (mole fraction) (in cyclohexanone, 284.15 K): 0.0398
solubility (mole fraction) (in cyclohexanone, 289.15 K): 0.0473
solubility (mole fraction) (in cyclohexanone, 293.75 K): 0.0551
solubility (mole fraction) (in cyclohexanone, 299.05 K): 0.0653
solubility (mole fraction) (in cyclohexanone, 303.75 K): 0.0756
solubility (mole fraction) (in cyclohexanone, 308.55 K): 0.0873
solubility (mole fraction) (in cyclohexanone, 313.65 K): 0.101
solubility (mole fraction) (in cyclohexanone, 318.25 K): 0.115
solubility (mole fraction) (in cyclohexanone, 323.95 K): 0.135
solubility (mole fraction) (in cyclopentanone, 273.15 K): 0.0441
solubility (mole fraction) (in cyclopentanone, 279.15 K): 0.0544
solubility (mole fraction) (in cyclopentanone, 284.15 K): 0.0642
solubility (mole fraction) (in cyclopentanone, 289.15 K): 0.0754
solubility (mole fraction) (in cyclopentanone, 293.75 K): 0.0871
solubility (mole fraction) (in cyclopentanone, 299.05 K): 0.102
solubility (mole fraction) (in cyclopentanone, 303.75 K): 0.117
solubility (mole fraction) (in cyclopentanone, 308.55 K): 0.134
solubility (mole fraction) (in cyclopentanone, 313.65 K): 0.154
solubility (mole fraction) (in cyclopentanone, 318.25 K): 0.174
solubility (mole fraction) (in cyclopentanone, 323.95 K): 0.201
solubility (mole fraction) (in ethanol, 273.15 K): 0.0474
solubility (mole fraction) (in ethanol, 279.15 K): 0.0599
solubility (mole fraction) (in ethanol, 283.95 K): 0.0715
solubility (mole fraction) (in ethanol, 289.15 K): 0.086
solubility (mole fraction) (in ethanol, 293.85 K): 0.102
solubility (mole fraction) (in ethanol, 299.15 K): 0.121
solubility (mole fraction) (in ethanol, 303.45 K): 0.139
solubility (mole fraction) (in ethanol, 309.05 K): 0.166
solubility (mole fraction) (in ethanol, 313.25 K): 0.189
solubility (mole fraction) (in ethanol, 319.15 K): 0.226
solubility (mole fraction) (in ethanol, 324.15 K): 0.26
solubility (mole fraction) (in ethyl formate, 273.15 K): 0.0121
solubility (mole fraction) (in ethyl formate, 279.15 K): 0.0153
solubility (mole fraction) (in ethyl formate, 284.15 K): 0.0186
solubility (mole fraction) (in ethyl formate, 289.15 K): 0.0223
solubility (mole fraction) (in ethyl formate, 293.75 K): 0.0263
solubility (mole fraction) (in ethyl formate, 299.05 K): 0.0316
solubility (mole fraction) (in ethyl formate, 303.75 K): 0.0371
solubility (mole fraction) (in ethyl formate, 308.55 K): 0.0432
solubility (mole fraction) (in ethyl formate, 313.65 K): 0.0508
solubility (mole fraction) (in ethyl formate, 318.25 K): 0.0583
solubility (mole fraction) (in ethyl formate, 323.95 K): 0.069
solubility (mole fraction) (in isobutanol, 273.15 K): 0.0521
solubility (mole fraction) (in isobutanol, 279.15 K): 0.0633
solubility (mole fraction) (in isobutanol, 284.15 K): 0.0737
solubility (mole fraction) (in isobutanol, 289.15 K): 0.0855
solubility (mole fraction) (in isobutanol, 293.75 K): 0.0976
solubility (mole fraction) (in isobutanol, 299.05 K): 0.113
solubility (mole fraction) (in isobutanol, 303.75 K): 0.129
solubility (mole fraction) (in isobutanol, 308.55 K): 0.146
solubility (mole fraction) (in isobutanol, 313.65 K): 0.166
solubility (mole fraction) (in isobutanol, 318.25 K): 0.186
solubility (mole fraction) (in isobutanol, 323.95 K): 0.213
solubility (mole fraction) (in isopropanol, 273.15 K): 0.0245
solubility (mole fraction) (in isopropanol, 279.15 K): 0.0339
solubility (mole fraction) (in isopropanol, 283.95 K): 0.0433
solubility (mole fraction) (in isopropanol, 289.15 K): 0.0561
solubility (mole fraction) (in isopropanol, 293.85 K): 0.0702
solubility (mole fraction) (in isopropanol, 299.15 K): 0.0901
solubility (mole fraction) (in isopropanol, 303.45 K): 0.109
solubility (mole fraction) (in isopropanol, 309.05 K): 0.139
solubility (mole fraction) (in isopropanol, 313.25 K): 0.166
solubility (mole fraction) (in isopropanol, 319.15 K): 0.211
solubility (mole fraction) (in isopropanol, 324.15 K): 0.257
solubility (mole fraction) (in methanol, 273.15 K): 0.0844
solubility (mole fraction) (in methanol, 279.15 K): 0.0988
solubility (mole fraction) (in methanol, 283.95 K): 0.112
solubility (mole fraction) (in methanol, 289.15 K): 0.127
solubility (mole fraction) (in methanol, 293.85 K): 0.142
solubility (mole fraction) (in methanol, 299.15 K): 0.161
solubility (mole fraction) (in methanol, 303.45 K): 0.177
solubility (mole fraction) (in methanol, 309.05 K): 0.201
solubility (mole fraction) (in methanol, 313.25 K): 0.219
solubility (mole fraction) (in methanol, 319.15 K): 0.247
solubility (mole fraction) (in methanol, 324.15 K): 0.274
solubility (mole fraction) (in methyl acetate, 273.15 K): 0.03
solubility (mole fraction) (in methyl acetate, 279.15 K): 0.0343
solubility (mole fraction) (in methyl acetate, 284.15 K): 0.0381
solubility (mole fraction) (in methyl acetate, 289.15 K): 0.0422
solubility (mole fraction) (in methyl acetate, 293.75 K): 0.0463
solubility (mole fraction) (in methyl acetate, 299.05 K): 0.0513
solubility (mole fraction) (in methyl acetate, 303.75 K): 0.056
solubility (mole fraction) (in methyl acetate, 308.55 K): 0.0611
solubility (mole fraction) (in methyl acetate, 313.65 K): 0.0668
solubility (mole fraction) (in methyl acetate, 318.25 K): 0.0722
solubility (mole fraction) (in methyl acetate, 323.95 K): 0.0794
solubility (mole fraction) (in n-butanol, 273.15 K): 0.0542
solubility (mole fraction) (in n-butanol, 279.15 K): 0.0653
solubility (mole fraction) (in n-butanol, 284.15 K): 0.0756
solubility (mole fraction) (in n-butanol, 289.15 K): 0.0873
solubility (mole fraction) (in n-butanol, 293.75 K): 0.0993
solubility (mole fraction) (in n-butanol, 299.05 K): 0.115
solubility (mole fraction) (in n-butanol, 303.75 K): 0.13
solubility (mole fraction) (in n-butanol, 308.55 K): 0.146
solubility (mole fraction) (in n-butanol, 313.65 K): 0.165
solubility (mole fraction) (in n-butanol, 318.25 K): 0.184
solubility (mole fraction) (in n-butanol, 323.95 K): 0.21
solubility (mole fraction) (in n-propanol, 273.15 K): 0.0352
solubility (mole fraction) (in n-propanol, 279.15 K): 0.047
solubility (mole fraction) (in n-propanol, 283.95 K): 0.0585
solubility (mole fraction) (in n-propanol, 289.15 K): 0.0741
solubility (mole fraction) (in n-propanol, 293.85 K): 0.0909
solubility (mole fraction) (in n-propanol, 299.15 K): 0.113
solubility (mole fraction) (in n-propanol, 303.45 K): 0.135
solubility (mole fraction) (in n-propanol, 309.05 K): 0.169
solubility (mole fraction) (in n-propanol, 313.25 K): 0.198
solubility (mole fraction) (in n-propanol, 319.15 K): 0.245
solubility (mole fraction) (in n-propanol, 324.15 K): 0.294
